For 18 molecules, Ki results are on record in patent US7964624B1, “Inhibitors of serine proteases” (priority 2005, dated 2011).

For one assay, the target named is T1, full-length hepatitis C viral protein NS3•4A (Hepatitis C virus genotype 1a, UniProt P27958).
T1 construct: hexa-histidine (N); made in house; host or cells: Sf9 insect cells (baculovirus, pVL1392)
The assay is described as follows: biochemical. More on the design: species or system HCV sub-type strain 1a. Conditions: Enzyme Assay 2 (HCV NS3 Peptide Cleavage Assay) activity, apparent Ki class.
In the case of `CNC(=O)C(=O)[C@H](CC1CC1)NC(=O)[C@@H]1C[C@]2(CC(c3cc(Cl)c(OC)cc3C)=NO2)CN1C(=O)[C@@H](NC(=O)CC1CCCCC1)C(C)(C)C` [Compound 662], the Ki was 100 to 500 nM. Turning to `CCC[C@H](NC(=O)[C@@H]1C[C@]2(CC(c3ccc(F)c(Cl)c3)=NO2)CN1C(=O)[C@@H](NC(=O)OC1CCCC1)C(C)(C)C)C(=O)C(N)=O` [Compound 654], the Ki is < 100 nM. Turning to `CNC(=O)C(=O)[C@H](CC1CC1)NC(=O)[C@@H]1C[C@]2(CC(c3cc(Cl)cc4c3OCOC4)=NO2)CN1C(=O)[C@@H](NC(=O)CC1CCCCC1)C(C)(C)C` [Compound 677], the Ki is < 100 nM. Still for that read-out and setting: the figure for `CCC[C@H](NC(=O)[C@@H]1C[C@]2(CC(c3cc(C)c(OC)c(C)c3)=NO2)CN1C(=O)[C@@H](NC(=O)CC1CCCCC1)C(C)(C)C)C(=O)C(N)=O` [Compound 724] is < 100 nM.

As for `CNC(=O)C(=O)[C@H](CC1CC1)NC(=O)[C@@H]1C[C@]2(CC(c3cc(Cl)cc4c3OCO4)=NO2)CN1C(=O)[C@@H](NC(=O)OC(C)(C)C)C(C)(C)C` [Compound 691], the Ki is 100 to 500 nM. Same read-out and setting: with `COc1cc(OC)c(C2=NO[C@]3(C2)C[C@@H](C(=O)N[C@@H](CC2CC2)C(=O)C(N)=O)N(C(=O)[C@@H](NC(=O)CC(C)(C)C)C(C)(C)C)C3)cc1Cl` [Compound 104] the figure was < 100 nM; with `COc1cc(OC)c(C2=NO[C@]3(C2)C[C@@H](C(=O)N[C@@H](CC2CC2)C(=O)C(N)=O)N(C(=O)[C@@H](NC(=O)OC(C)(C)C)C(C)(C)C)C3)cc1Cl` [Compound 264], < 100 nM; with `CCC[C@H](NC(=O)[C@@H]1C[C@]2(CC(c3ccc(F)c(Cl)c3)=NO2)CN1C(=O)[C@@H](NC(=O)OC(C)(C)C)C(C)(C)C)C(=O)C(=O)NC` [Compound 631], < 100 nM. Take `CCC[C@H](NC(=O)[C@@H]1C[C@]2(CC(c3cc(Cl)c(OC)cc3C)=NO2)CN1C(=O)[C@@H](NC(=O)CC1CCCCCC1)C(C)(C)C)C(=O)C(=O)NC1CC1` [Compound 606]: the Ki fell in the range of 100 to 500 nM.

Turning to `CCC[C@H](NC(=O)[C@@H]1C[C@]2(CC(c3cc(Cl)c(OC)cc3OC)=NO2)CN1C(=O)[C@@H](NC(=O)CC1CC2CCC1C2)C(C)(C)C)C(=O)C(=O)NC1CC1` (stereo partly drawn) [Compound 446], the Ki was < 100 nM. The same measure, in the same setting: the figure for `CNC(=O)C(=O)C(CC1CC1)NC(=O)[C@@H]1C[C@]2(CC(c3cc(C)c(OC)c(C)c3)=NO2)CN1C(=O)[C@@H](NC(=O)OC1CCCC1)C(C)(C)C` (stereo partly drawn) [Compound 768] is 100 to 500 nM.

Staying with this assay, now noted: Enzyme Assay 2, HCV NS3 Peptide Cleavage Assay, apparent Ki.
On to `CCC[C@H](NC(=O)[C@@H]1C[C@]2(CC(c3cc(C)c(OCC)c(C)c3)=NO2)CN1C(=O)[C@@H](NC(=O)CC1CCCCC1)C(C)(C)OC)C(=O)C(=O)NC1CC1` [Compound 956], for which the Ki was < 100 nM.

As for `CCC[C@H](NC(=O)[C@@H]1C[C@]2(CC(c3cccc(Cl)c3)=NO2)CN1C(=O)[C@@H](NC(=O)[C@@H]1CC12CCOCC2)C(C)(C)C)C(=O)C(=O)NC` [Compound 931], the Ki was in the range of 100 to 500 nM. Consider `CNC(=O)C(=O)[C@H](CC1CC1)NC(=O)[C@@H]1C[C@]2(CC(c3cccc(Cl)c3)=NO2)CN1C(=O)[C@@H](NC(=O)[C@@H]1CC12CCCCC2)C(C)(C)C` [Compound 850], for which the Ki was < 100 nM.

Take `CNC(=O)C(=O)[C@H](CC1CC1)NC(=O)[C@@H]1C[C@]2(CC(c3cccc(Cl)c3)=NO2)CN1C(=O)[C@@H](NC(=O)Cc1cccnc1)C(C)(C)C` [Compound 958]: the Ki was < 100 nM. As to `CCC[C@H](NC(=O)[C@@H]1C[C@]2(CC(c3cc(C)c(OCC)c(C)c3)=NO2)CN1C(=O)[C@@H](NC(=O)C1CC1c1ccncc1)C(C)(C)C)C(=O)C(=O)NC1CC1` (stereo partly drawn) [Compound 982], the Ki lay within 100 to 500 nM. On the same count and under the same terms, with `CNC(=O)C(=O)[C@H](CC1CC1)NC(=O)[C@@H]1C[C@]2(CC(c3cc(C)c(OC)c(C)c3)=NO2)CN1C(=O)[C@@H](NC(=O)[C@@H]1CC1c1ccccc1)C(C)(C)C` (stereo partly drawn) [Compound 798] the figure was < 100 nM; with `CC(C)(C)[C@H](NC(=O)[C@@H]1C[C@H]1c1ccccc1)C(=O)N1C[C@@]2(CC(c3cccc4cccnc34)=NO2)C[C@H]1C(=O)N[C@@H](CC1CC1)C(=O)C(N)=O` [Compound 806], < 100 nM.
